The record followed here is US7585895B2, “Therapeutic substituted cyclopentanes” (Allergan, Inc., priority 2005, dated 2009).

Type in all cases: cell-based
For one assay, the target named is EP2 (Homo sapiens, UniProt P43116). As to the kind of experiment: cAMP assay, HEK-EBNA cells expressing EP2. Set-up: expressed in transfected cells; host or cells: HEK-EBNA. The settings on record: value in parentheses in EP2 column, read-out: EP2 EC50 (nM), measurement of cAMP (data in parentheses). Here is the method:
A 384-well drug plate was prepared to contain 6 test compounds, PGE2 and cAMP in 16 serial dilutions in triplicate, using a Biomek station. HEK-EBNA cells expressing a target PG receptor subtype (EP2 or EP4) were suspended in a stimulation buffer (HBSS, 0.1% BSA, 0.5 mM IBMX and 5 mM HEPES, pH 7.4) in a density of 10^4 cells/5 μl. The reaction was initiated by mixing 5 μL drug dilutions with 5 μl of HEK-EBNA cells in a well, carried out for 30 min at room temperature, and followed by the addition of 5 μl anti-cAMP acceptor beads in the control buffer with Tween-20 (25 mM NaCl, 0.03% Tween-20, 5 mM HEPES, pH7.4). After 30 min in the dark at room temperature, the mixtures were incubated with 15 μl biotinylated-cAMP/strepavidin donor beads in Lysis/Detection buffer (0.1% BSA, 0.3% Tween-20 and 5 mM HEPES, pH7.4) for 45 min at the room temperature. Fluorescence changes were read using a Fusion-alpha HT microplate reader.

The target of a further assay is T1, hEP3A/Gqi5 (Homo sapiens, UniProt P43115).
T1 construct: expressed in transfected cells
T1 sequence (P43115 1-390): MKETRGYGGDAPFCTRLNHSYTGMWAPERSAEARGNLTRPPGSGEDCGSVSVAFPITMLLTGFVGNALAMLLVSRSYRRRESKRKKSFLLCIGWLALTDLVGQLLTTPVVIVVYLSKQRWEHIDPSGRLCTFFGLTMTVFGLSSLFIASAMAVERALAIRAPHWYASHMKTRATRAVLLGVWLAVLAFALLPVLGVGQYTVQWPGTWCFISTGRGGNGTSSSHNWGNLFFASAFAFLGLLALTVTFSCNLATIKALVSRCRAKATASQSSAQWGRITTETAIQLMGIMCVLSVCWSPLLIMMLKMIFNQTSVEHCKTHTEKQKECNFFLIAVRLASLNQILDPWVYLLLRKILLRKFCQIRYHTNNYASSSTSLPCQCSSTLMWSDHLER
As to the kind of experiment: FLIPR calcium signal, EP3. As to conditions: HEK-293(EBNA); for EC50: read-out: Ca2+ Signal-EC50 (nM) EP3. How it is done:
(§1) HEK-293(EBNA) cells, stably expressing one type or subtype of recombinant human prostaglandin receptors (prostaglandin receptors expressed: hDP/Gqs5; hEP1; hEP2/Gqs5; hEP3A/Gqi5; hEP4/Gqs5; hFP; hIP; hTP), were cultured in 100 mm culture dishes in high-glucose DMEM medium containing 10% fetal bovine serum, 2 mM 1-glutamine, 250 μg/ml geneticin (G418) and 200 μg/ml hygromycin B as selection markers, and 100 units/ml penicillin G, 100 μg/ml streptomycin and 0.25 μg/ml amphotericin B.
(§2) Cells were seeded at a density of 5×10^4 cells per well in Biocoat® Poly-D-lysine-coated black-wall, clear-bottom 96-well plates (Becton-Dickinson) and allowed to attach overnight in an incubator at 37° C. Cells were then washed two times with HBSS-HEPES buffer (Hanks Balanced Salt Solution without bicarbonate and phenol red, 20 mM HEPES, pH 7.4) using a Denley Cellwash plate washer (Labsystems). After 45 minutes of dye-loading in the dark, using the calcium-sensitive dye Fluo-4 AM at a final concentration of 2 μM, plates were washed four times with HBSS-HEPES buffer to remove excess dye leaving 100 μl in each well. Plates were re-equilibrated to 37° C. for a few minutes.
(§3) Cells were excited with an Argon laser at 488 nm, and emission was measured through a 510-570 nm bandwidth emission filter (FLIPR™, Molecular Devices, Sunnyvale, Calif.). Drug solution was added in a 50 μl volume to each well to give the desired final concentration. The peak increase in fluorescence intensity was recorded for each well. On each plate, four wells each served as negative (HBSS-HEPES buffer) and positive controls (standard agonists: BW245C (hDP); PGE2 (HEP1; hEP2/Gqs5; hEP3A/Gqi5; hEP4/Gqs5); PGF2α (hFP); carbacyclin (hIP); U-46619 (hTP), depending on receptor). The peak fluorescence change in each drug-containing well was then expressed relative to the controls.
(§4) Compounds were tested in a high-throughput (HTS) or concentration-response (CoRe) format. In the HTS format, forty-four compounds per plate were examined in duplicates at a concentration of 10^−5 M. To generate concentration-response curves, four compounds per plate were tested in duplicates in a concentration range between 10^−5 and 10^−11 M. The duplicate values were averaged. In either, HTS or CoRe format each compound was tested on at least 3 separate plates using cells from different passages to give an n≧3.

The next assay has as its target T2, hTP (Homo sapiens, UniProt P21731).
T2 construct: expressed in transfected cells
T2 sequence (P21731 1-343): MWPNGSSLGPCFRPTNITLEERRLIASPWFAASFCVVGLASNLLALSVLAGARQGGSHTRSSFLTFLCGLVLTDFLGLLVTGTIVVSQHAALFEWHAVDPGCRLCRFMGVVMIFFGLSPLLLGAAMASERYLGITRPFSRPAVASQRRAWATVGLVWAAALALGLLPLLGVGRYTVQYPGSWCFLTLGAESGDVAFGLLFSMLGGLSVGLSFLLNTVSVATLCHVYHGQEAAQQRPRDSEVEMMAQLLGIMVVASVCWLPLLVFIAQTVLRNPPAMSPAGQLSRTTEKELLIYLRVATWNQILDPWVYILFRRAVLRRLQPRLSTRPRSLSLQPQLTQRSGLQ
As to the kind of experiment: FLIPR calcium signal, TP. As to conditions: HEK-293(EBNA). How it is done: as §1, §2, §3, §4

A further assay has as its target T3, hFP (Homo sapiens, UniProt P43088).
T3 construct: expressed in transfected cells
The experiment in a line: FLIPR calcium signal, FP. As to conditions: HEK-293(EBNA). How it is done: as §1, §2, §3, §4

The structures appear in SMILES notation.

Sequence of EP2 (P43116 whole entry): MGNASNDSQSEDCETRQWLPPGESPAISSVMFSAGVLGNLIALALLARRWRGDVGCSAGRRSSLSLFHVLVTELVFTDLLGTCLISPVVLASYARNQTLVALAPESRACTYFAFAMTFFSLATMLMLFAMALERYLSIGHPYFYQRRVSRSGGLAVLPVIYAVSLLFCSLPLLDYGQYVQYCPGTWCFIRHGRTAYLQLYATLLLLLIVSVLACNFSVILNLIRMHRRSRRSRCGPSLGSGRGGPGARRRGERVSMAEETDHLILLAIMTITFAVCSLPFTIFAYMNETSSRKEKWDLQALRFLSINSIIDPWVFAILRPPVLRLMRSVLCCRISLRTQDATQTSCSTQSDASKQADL
T3 sequence (P43088 whole entry): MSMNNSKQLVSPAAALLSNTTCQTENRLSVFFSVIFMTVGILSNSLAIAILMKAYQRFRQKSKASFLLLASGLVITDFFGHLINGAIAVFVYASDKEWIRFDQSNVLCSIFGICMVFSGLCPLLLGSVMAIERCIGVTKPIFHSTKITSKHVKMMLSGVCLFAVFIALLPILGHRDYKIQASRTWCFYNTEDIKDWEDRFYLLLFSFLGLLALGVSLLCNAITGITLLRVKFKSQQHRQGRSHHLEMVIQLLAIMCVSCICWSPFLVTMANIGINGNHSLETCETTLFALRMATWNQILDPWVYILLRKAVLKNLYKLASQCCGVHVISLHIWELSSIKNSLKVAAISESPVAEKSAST

For orientation: EC50 means the concentration needed to bring the measured effect to its halfway point. Consider `O=C(O)CCCCCC[C@@H]1[C@@H](c2ccc(C(O)CC3CCCCC3)cc2)[C@H](O)C[C@H]1Cl` (stereo partly drawn) [Entry 18, 7-{(1R,2S,3R,5R)-5-Chloro-2-[4-(2-cyclohexyl-1-hydroxy-ethyl)-phenyl]-3-hydroxy-cyclopentyl}-heptanoic acid], for which, on EP2, the EC50 worked out at 2660 nM. In addition, the “Ca2+ Signal-EC50 (nM) EP3” value on hEP3A/Gqi5 is reported as “not active”. Besides, the “Ca2+ Signal-EC50 (nM) TP” value at hTP was “not active”. Also, at hFP, the “Ca2+ Signal-EC50 (nM) FP” value is “not active”.

With `O=C(O)CCC/C=C\C[C@@H]1[C@@H](c2ccc(C(O)CCC3CCCCC3)cc2)[C@H](O)C[C@H]1Cl` (stereo partly drawn) [Entry 15, (Z)-7-{(1R,2S,3R,5R)-5-Chloro-2-[4-(3-cyclohexyl-1-hydroxy-propyl)-phenyl]-3-hydroxy-cyclopentyl}-hept-5-enoic acid], the values for the EC50 on EP2 and at hEP3A/Gqi5 were 176 nM and 2220 nM, respectively. In addition, the “Ca2+ Signal-EC50 (nM) TP” value at hTP is given as “not active”. The “Ca2+ Signal-EC50 (nM) FP” value on hFP is listed as “not active”.

In the case of `CCCCCC(O)c1ccc([C@@H]2[C@@H](C/C=C\CCCC(=O)O)[C@H](Cl)C[C@H]2O)cc1` (single isomer, unassigned) [Entry 12], the EC50 at EP2 came out at 38 nM. Also, the “Ca2+ Signal-EC50 (nM) EP3” value on hEP3A/Gqi5 is on record as “not active”. Moreover, the “Ca2+ Signal-EC50 (nM) TP” value at hTP was “not active”. For the same molecule, at hFP, the “Ca2+ Signal-EC50 (nM) FP” value was “not active”.

For the molecule `CCCCCC(O)c1ccc([C@@H]2[C@@H](CCCCCCC(=O)O)[C@H](Cl)C[C@H]2O)cc1` (stereo partly drawn) [Entry 14, 7-{(1R,2S,3R,5R)-5-Chloro-3-hydroxy-2-[4-(1-hydroxy-hexyl)-phenyl]-cyclopentyl}-heptanoic acid], the EC50 on EP2 came out at 76 nM; at hEP3A/Gqi5, 477 nM. Moreover, the “Ca2+ Signal-EC50 (nM) TP” value on hTP is listed as “not active”. Also, on hFP, the “Ca2+ Signal-EC50 (nM) FP” value is “not active”.

In the case of `CCCCCC(O)C(C)(C)c1ccc([C@@H]2[C@@H](C/C=C\CCCC(=O)O)[C@H](Cl)C[C@H]2O)cc1` (stereo partly drawn) [Entry 31, (Z)-7-{(1R,2S,3R,5R)-5-Chloro-3-hydroxy-2-[4-(2-hydroxy-1,1-dimethyl-heptyl)-phenyl]-cyclopentyl}-hept-5-enoic acid], the EC50 on EP2 stood at 19 nM; at hEP3A/Gqi5 it was 1300 nM. The “Ca2+ Signal-EC50 (nM) TP” value at hTP is recorded as “not active”. Besides, the “Ca2+ Signal-EC50 (nM) FP” value on hFP was “not active”.

With `CCCCCC(O)c1ccc([C@@H]2[C@@H](Cc3cccc(CCC(=O)O)c3)[C@H](Cl)C[C@H]2O)cc1` (stereo partly drawn) [Entry 3, 3-(3-{(1R,2S,3R,5R)-5-Chloro-3-hydroxy-2-[4-(1-hydroxy-hexyl)-phenyl]-cyclopentylmethyl}-phenyl)-propionic acid], the figures for the EC50 at EP2 and on hEP3A/Gqi5 were 56 nM and 4670 nM, respectively. Further, the “Ca2+ Signal-EC50 (nM) TP” value at hTP is “not active”. For the same molecule, the “Ca2+ Signal-EC50 (nM) FP” value at hFP is “not active”.

On to `CCCCCC(O)c1ccc([C@@H]2[C@@H](C/C=C\CCCC(=O)O)[C@H](F)C[C@H]2O)cc1` (mixture of isomers) [Entry 8, (Z)-7-{(1R,2S,3R,5R)-5-Fluoro-3-hydroxy-2-[4-(1-hydroxy-hexyl)-phenyl]-cyclopentyl}-hept-5-enoic acid], for which the EC50 at EP2 was found to be 8 nM; on hEP3A/Gqi5 it was 1450 nM. In addition, the “Ca2+ Signal-EC50 (nM) TP” value on hTP is on record as “not active”. Besides, the “Ca2+ Signal-EC50 (nM) FP” value on hFP was “not active”.

With `CCCC(O)c1ccc([C@@H]2[C@@H](C/C=C\CCCC(=O)O)[C@H](Cl)C[C@H]2O)cc1` (stereo partly drawn) [Entry 26, (Z)-7-{(1R,2S,3R,5R)-5-Chloro-3-hydroxy-2-[4-(1-hydroxy-butyl)-phenyl]-cyclopentyl}-hept-5-enoic acid], the EC50 at EP2 came to 7 nM. Besides, at hEP3A/Gqi5, the “Ca2+ Signal-EC50 (nM) EP3” value is “not active”. In addition, the “Ca2+ Signal-EC50 (nM) TP” value at hTP is given as “not active”. At hFP, the “Ca2+ Signal-EC50 (nM) FP” value was “not active”.

As for `O=C(O)CCC/C=C\C[C@@H]1[C@@H](c2ccc(C(O)CCc3ccccc3)cc2)[C@H](O)C[C@H]1Cl` (stereo partly drawn) [Entry 23, (Z)-7-{(1R,2S,3R,5R)-5-Chloro-3-hydroxy-2-[4-(1-hydroxy-3-phenyl-propyl)-phenyl]-cyclopentyl}-hept-5-enoic acid], the EC50 on EP2 was 125 nM; at hEP3A/Gqi5, 13700 nM. Further, the “Ca2+ Signal-EC50 (nM) TP” value at hTP is on record as “not active”. The “Ca2+ Signal-EC50 (nM) FP” value on hFP is “not active”.

Consider `CCCCCC(O)c1cccc([C@@H]2[C@@H](C/C=C\CCCC(=O)O)[C@H](Cl)C[C@H]2O)c1` (stereo partly drawn) [Entry 29, (Z)-7-{(1R,2S,3R,5R)-5-Chloro-3-hydroxy-2-[3-(1-hydroxy-hexyl)-phenyl]-cyclopentyl}-hept-5-enoic acid], for which the EC50 is 38 nM at EP2 and 37 nM at hEP3A/Gqi5. Also, the “Ca2+ Signal-EC50 (nM) TP” value on hTP is on record as “not active”. In addition, the “Ca2+ Signal-EC50 (nM) FP” value on hFP is “not active”.

With `CCCCCC(O)c1ccc([C@@H]2[C@@H](C/C=C\CCCC(=O)O)[C@H](Cl)C[C@H]2O)cc1` (mixture of isomers) [Entry 11, (Z)-7-{(1R,2S,3R,5R)-5-Chloro-3-hydroxy-2-[4-(1-hydroxy-hexyl)-phenyl]-cyclopentyl}-hept-5-enoic acid], the EC50 at EP2 was 3 nM; on hEP3A/Gqi5, 456 nM. For the same molecule, the “Ca2+ Signal-EC50 (nM) TP” value at hTP is on record as “not active”. Further, the “Ca2+ Signal-EC50 (nM) FP” value on hFP is recorded as “not active”.

Regarding `CCCCCCc1ccc([C@@H]2[C@@H](C/C=C\CCCC(=O)O)[C@H](Cl)C[C@H]2O)cc1` [Entry 33, (Z)-7-[(1R,2S,3R,5R)-5-Chloro-2-(4-hexyl-phenyl)-3-hydroxy-cyclopentyl]-hept-5-enoic acid], the EC50 at EP2 is 27 nM. Besides, at hEP3A/Gqi5, the “Ca2+ Signal-EC50 (nM) EP3” value is given as “not active”. Further, the “Ca2+ Signal-EC50 (nM) TP” value on hTP is reported as “not active”. Moreover, the “Ca2+ Signal-EC50 (nM) FP” value at hFP is “not active”.

`O=C(O)CCCCCC[C@@H]1[C@@H](c2ccc(C(O)Cc3ccccc3)cc2)[C@H](O)C[C@H]1Cl` (stereo partly drawn) [Entry 22, 7-{(1 R,2S,3R,5R)-5-Chloro-3-hydroxy-2-[4-(1-hydroxy-2-phenyl-ethyl)-phenyl]-cyclopentyl}-heptanoic acid]: the EC50 at EP2 is 59 nM. On hEP3A/Gqi5, the “Ca2+ Signal-EC50 (nM) EP3” value is “not active”. In addition, the “Ca2+ Signal-EC50 (nM) TP” value on hTP is on record as “not active”. The “Ca2+ Signal-EC50 (nM) FP” value at hFP was “not active”.
